Data on 27 molecules can be found in US4371523A, “Reducing the aggregation of insulin in solution” (The Regents of the University of California, priority 1980, dated 1983).

The target of data set [1] is T1, single component neutral pork zinc insulin (Sus scrofa, UniProt P01315).
T1 construct: single component, neutral, pork, zinc-insulin (U.500 regular Iletin II., Eli Lilly & Company); purchased Eli Lilly & Company U.500 regular Iletin II
The experiment in a line: Controlled shaking of zinc insulin solutions in test tubes, optical density at 600 nm. It is filed as physicochemical. The following applies: for Optical Density ± 1 × SE: zinc insulin 50 U/ml, OD at 600 nm. The procedure:
In vitro testing of single component neutral pork zinc insulin was undertaken with a number of added agents. Solutions at about neutral pH and at acid pH were tested. In addition, some testing was also undertaken with Na insulin.
The tests were conducted using plastic tybes (5 ml test tubes, Sarstedt, sealed by plastic caps covered with paraffin) each containing 2 ml of the insulin solutions noted below. The tubes were continuously agitated in a metabolic shaking incubator (Dubnoff E.C.A. Co.) at 60 to 80 r.p.m. and 37° C. for periods up to sixteen days.
The zinc insulin solutions were prepared by appropriate dilutions of highly concentrated (500 U/ml) single component, neutral, pork, zinc-insulin (U.500 regular Iletin II., Eli Lilly & Company). The unbuffered diluting fluid contained glycerin, 16 mg/ml, and phenol, 2 mg/ml of distilled water (Eli Lilly & Company). […] Final insulin concentration in all solutions was 50 U/ml (2 mg/ml).
Insulin solutions with amino acid added were prepared by addition of the dry amino acids (Sigma Company) to the neutral zinc or sodium insulin solutions. Final concentration of the amino acid additives was 7 mg per ml of insulin solution. pH was adjusted, when necessary, to 7.5 for neutral insulin mixtures and to 3.3-3.5 for acid insulin mixtures.
Several non-amino carboxylic acids, i.e., lactic acid, acetic acid, and citric acid, were added under the same conditions of concentration and pH as described for the amino acids.
The various insulin solutions, both as made up without additives and with additives, were shaken as noted above for up to sixteen days, at which time the solutions were examined with an optical densitometer at a wave length 600 nm. The optical density (OD) of each solution was an indication of the amount of aggregation present after the shaking period. The higher the optical density, the greater the aggregation in that solution.

The test system of the next data set is insulin. The conditions noted are these: supplemental material added to insulin solution; cited from earlier work.
The next data set deals with T2, pork sodium-insulin (Sus scrofa, UniProt P01315).
T2 construct: pork sodium-insulin crystals (U.1000 neutral sodium insulin special pork obtained from Eli Lilly & Company); purchased Eli Lilly & Company U.1000 neutral sodium insulin special pork
T2 sequence (P01315 25-54 limits assumed): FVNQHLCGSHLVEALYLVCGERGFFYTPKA
T2 sequence (P01315 88-108 limits assumed): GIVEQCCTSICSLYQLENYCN
Put plainly: Controlled shaking of Na insulin solutions in test tubes, optical density at 600 nm. It is filed as physicochemical. The conditions noted are these: for Optical Density ± 1 × SE: Na insulin 50 U/ml, OD at 600 nm. How it is done: In vitro testing of single component neutral pork zinc insulin was undertaken with a number of added agents. Solutions at about neutral pH and at acid pH were tested. In addition, some testing was also undertaken with Na insulin. The tests were conducted using plastic tybes (5 ml test tubes, Sarstedt, sealed by plastic caps covered with paraffin) each containing 2 ml of the insulin solutions noted below. The tubes were continuously agitated in a metabolic shaking incubator (Dubnoff E.C.A. Co.) at 60 to 80 r.p.m. and 37° C. for periods up to sixteen days. The sodium insulin solutions were made by dissolving pork sodium-insulin crystals (U.1000 neutral sodium insulin special pork obtained from Eli Lilly & Company) in the same diluting fluid as utilized with the zinc insulin. The solutions were adjusted to neutral or acid pH as indicated above. Final insulin concentration in all solutions was 2 mg/ml (50 U/ml). Insulin solutions with amino acid added were prepared by addition of the dry amino acids (Sigma Company) to the neutral zinc or sodium insulin solutions. Final concentration of the amino acid additives was 7 mg per ml of insulin solution. pH was adjusted, when necessary, to 7.5 for neutral insulin mixtures and to 3.3-3.5 for acid insulin mixtures. The various insulin solutions, both as made up without additives and with additives, were shaken as noted above for up to sixteen days, at which time the solutions were examined with an optical densitometer at a wave length 600 nm. The optical density (OD) of each solution was an indication of the amount of aggregation present after the shaking period. The higher the optical density, the greater the aggregation in that solution.

Setting [2] is: agent added to insulin solution at acid pH 3.3-3.5.
The mark [3] stands for this setting: pH 7.4, shaken 16 days at 37° C., higher OD = greater aggregation.
The mark [4] stands for this setting: pH 3.3-3.5, shaken 16 days at 37° C.

“Also recorded” adds a separate entry of the source.

T1 sequence (P01315 25-54 limits assumed): as the sequence (P01315 25-54 limits assumed) above

As to `N[C@@H](Cc1c[nH]c2ccccc12)C(=O)O` [Tryptophane], the “Protective effect against insulin aggregation (in words)” value in data set [1] (setting [2]) is given as “no protective effect was noted”. In addition, the “Optical Density ± 1 × SE” value in data set [1] (setting [3]) worked out at 0.585 ± 0.200.

Turning to `CSCC[C@H](N)C(=O)O` [Methionine], in data set [1] (setting [2]), the “Protective effect against insulin aggregation (in words)” value is listed as “no protective effect was noted”. For the same molecule, in data set [1] (setting [3]), the “Optical Density ± 1 × SE” value came to 0.74 ± 0.22.

Turning to `O=C([O-])O.[Na+]` [sodium bicarbonate], the “Effect in preventing the aggregation of insulin in solution over extended periods of time” value (“Effect … over extended periods of time” below) in the data set with insulin is “do not appear to have any appreciable effect”.

In the case of `CC(=O)O` [Acetic Acid], the “Protective effect against insulin aggregation (in words)” value is “do not prevent aggregation; also recorded: a comparable protective effect was not noted” in data set [1] (setting [2]) and “exacerbate aggregation” in data set [1] (agent added to insulin solution at acid pH 3.3-3.5, listed as acetate).

In the case of `CC(O)C(=O)O` (stereo not shown) [Lactic Acid], the “Protective effect against insulin aggregation (in words)” value is “do not prevent aggregation; also recorded: a comparable protective effect was not noted” in data set [1] (setting [2]) and “exacerbate aggregation” in data set [1] (agent added to insulin solution at acid pH 3.3-3.5, listed as lactate).

Regarding `NCCCC[C@H](N)C(=O)O` [Lysine], the “Protective effect against insulin aggregation (in words)” value in data set [1] (setting [2]) is “no protective effect was noted”. In addition, the “Optical Density ± 1 × SE” value in data set [1] (setting [4]) was 0.35 ± 0.13; in data set [1] (setting [3]) it was 0.25 ± 0.08.

For `O=C(O)CN(CCN(CC(=O)O)CC(=O)O)CC(=O)O` [ethylene diamine tetraacetic acid], the “Effect … over extended periods of time” value in the data set on insulin is given as “do not appear to have any appreciable effect”.

In the case of `NC(=O)C[C@H](N)C(=O)O` [Asparagine], in data set [1] (setting [2]), the “Protective effect against insulin aggregation (in words)” value is “no protective effect was noted”. In data set [1] (setting [3]), the “Optical Density ± 1 × SE” value is 0.87 ± 0.13.

Regarding `N[C@@H](Cc1c[nH]cn1)C(=O)O` [Histidine], the “Protective effect against insulin aggregation (in words)” value in data set [1] (setting [2]) is “no protective effect was noted”. Further, the “Optical Density ± 1 × SE” value in data set [1] (setting [3]) turned out to be 0.245 ± 0.08. The “Effect … over extended periods of time” value in the data set on insulin is reported as “do not appear to have any appreciable effect”.

Consider `N[C@@H](CC(=O)O)C(=O)O` [Aspartic Acid], for which the “Optical Density ± 1 × SE” value on pork sodium-insulin (pH 3.5, shaken at 37° C.) is 0.10 ± 0.01; in data set [1] (setting [4]) it was 0.084 ± 0.009; in data set [1] (setting [3]), 0.51 ± 0.078. In addition, the “Protective effect on Na insulin solutions (in words)” value at pork sodium-insulin (acid pH) is recorded as “some protective effect”. Besides, the “Protective effect against insulin aggregation (in words)” value is “more effective than glutamic acid; also recorded: particularly effective in protecting insulin solutions from aggregation” in data set [1] (agent added to insulin solution at acid pH 3.3-3.5, listed as Aspartic acid); “prevented the development of any appreciable aggregation throughout the entire experiment” in data set [1] (agent added to insulin solution at acid pH 3.3-3.5, listed as aspartic acid); “do not offer any effective protection; also recorded: the protective effect of the agents are no longer apparent” in data set [1] (agent added to insulin solution at neutral pH (about pH 7, pH 7.4)).

`CC(C)C[C@H](N)C(=O)O` [Leucine]: the “Protective effect against insulin aggregation (in words)” value in data set [1] (setting [2]) is “no protective effect was noted”. Besides, the “Optical Density ± 1 × SE” value in data set [1] (setting [3]) turned out to be 0.695 ± 0.03.

In the case of `N[C@@H](CO)C(=O)O` [Serine], in data set [1] (setting [2]), the “Protective effect against insulin aggregation (in words)” value was “no protective effect was noted”. Also, the “Optical Density ± 1 × SE” value in data set [1] (setting [3]) is 0.89 ± 0.02.

Take `C[C@@H](O)[C@H](N)C(=O)O` [Threonine]: the “Protective effect against insulin aggregation (in words)” value in data set [1] (setting [2]) is “no protective effect was noted”. Also, in data set [1] (setting [3]), the “Optical Density ± 1 × SE” value worked out at 0.76 ± 0.02.

For the molecule `N=C(N)NCCC[C@H](N)C(=O)O` [Arginine], the “Protective effect against insulin aggregation (in words)” value in data set [1] (setting [2]) was “no protective effect was noted”. Moreover, in data set [1] (setting [3]), the “Optical Density ± 1 × SE” value came to 0.074 ± 0.03. For the same molecule, in data set [1] (zinc insulin, pH 7.4, 16 days), the “Observation of the solution after shaking” value is on record as “Gel formed”.

`Cl` [hydrochloric acid]: the “Protective effect against insulin aggregation (in words)” value in data set [1] (setting [2]) is given as “a comparable protective effect was not noted”.

Regarding `CC(C)[C@H](N)C(=O)O` [Valine], the “Protective effect against insulin aggregation (in words)” value in data set [1] (setting [2]) is “no protective effect was noted”. Besides, the “Optical Density ± 1 × SE” value in data set [1] (setting [3]) turned out to be 0.64 ± 0.26.

In the case of `[Cl-].[Na+]` [sodium chloride], the “Effect … over extended periods of time” value in the data set on insulin is recorded as “do not appear to have any appreciable effect”.

As for `C[C@H](N)C(=O)O` [Alanine], in data set [1] (setting [2]), the “Protective effect against insulin aggregation (in words)” value is recorded as “no protective effect was noted”. For the same molecule, the “Optical Density ± 1 × SE” value in data set [1] (setting [4]) is recorded as 0.41 ± 0.02; in data set [1] (setting [3]), 0.84 ± 0.04.

On to `N[C@@H](CS)C(=O)O` [Cysteine], for which the entries for the “Optical Density ± 1 × SE” value in data set [1] (setting [4]) and in data set [1] (setting [3]) were 0.39 ± 0.08 and 0.34 ± 0.13, respectively. Also, the “Effect … over extended periods of time” value with insulin is recorded as “do not appear to have any appreciable effect”.

Regarding `NC(=O)CC[C@H](N)C(=O)O` [Glutamine], the “Protective effect against insulin aggregation (in words)” value in data set [1] (setting [2]) is “no protective effect was noted”. For the same molecule, the “Optical Density ± 1 × SE” value in data set [1] (setting [3]) is 0.68 ± 0.03.

Regarding `NCC(=O)O` [Glycine], in data set [1] (setting [2]), the “Protective effect against insulin aggregation (in words)” value is recorded as “no protective effect was noted”. Also, the “Optical Density ± 1 × SE” value in data set [1] (setting [4]) came to 0.28 ± 0.04; in data set [1] (setting [3]), 0.66 ± 0.095. The “Effect … over extended periods of time” value with insulin is given as “do not appear to have any appreciable effect”.

`OCc1ccccc1` [benzol alcohol]: the “Effect … over extended periods of time” value in the data set with insulin was “do not appear to have any appreciable effect”.

Turning to `O=C(O)CC(O)(CC(=O)O)C(=O)O` [Citric Acid], the “Protective effect against insulin aggregation (in words)” value in data set [1] (setting [2]) is given as “do not prevent aggregation; also recorded: a comparable protective effect was not noted”; in data set [1] (agent added to insulin solution at acid pH 3.3-3.5, listed as citrate), “exacerbate aggregation”.

Turning to `O=C(O)[C@@H]1CCCN1` [Proline], in data set [1] (setting [2]), the “Protective effect against insulin aggregation (in words)” value was “no protective effect was noted”. Besides, in data set [1] (setting [3]), the “Optical Density ± 1 × SE” value is recorded as 0.665 ± 0.21.

Consider `O=P(O)(O)O` [sodium phosphate], for which the “Effect … over extended periods of time” value in the data set with insulin is listed as “do not appear to have any appreciable effect”.

Turning to “Na Insulin: pork sodium-insulin crystals (U.1000 neutral sodium insulin special pork, Eli Lilly & Company) in solution, no agent added”, the “Optical Density ± 1 × SE” value with pork sodium-insulin (pH 3.5, shaken at 37° C.) stood at 0.128 ± 0.02; with pork sodium-insulin (pH 7.4, shaken at 37° C.), 0.18 ± 0.02. Moreover, the “Aggregation of Na insulin (in words)” value is “less than at pH 7.4 but is nevertheless appreciable” with pork sodium-insulin (pH 3.3-3.5) and “also aggregates; also recorded: aggregation is less than that seen for neutral zinc insulin at the same pH” in the data set with pork sodium-insulin (pH 7.4, by 16 days).

As for `N[C@@H](CSSC[C@H](N)C(=O)O)C(=O)O` [cystine], the “Protective effect against insulin aggregation (in words)” value in data set [1] (setting [2]) was “no protective effect was noted”.
